Laboratory results published in ChEMBL document CHEMBL1144605, “Discovery of an androgen receptor modulator pharmacophore based on 2-quinolinones” (Bioorg Med Chem Lett, 2007).

Key:
Androgen receptor [1] = molecular target: T1, Androgen receptor (Homo sapiens, UniProt P10275)
T1 sequence (P10275 whole entry): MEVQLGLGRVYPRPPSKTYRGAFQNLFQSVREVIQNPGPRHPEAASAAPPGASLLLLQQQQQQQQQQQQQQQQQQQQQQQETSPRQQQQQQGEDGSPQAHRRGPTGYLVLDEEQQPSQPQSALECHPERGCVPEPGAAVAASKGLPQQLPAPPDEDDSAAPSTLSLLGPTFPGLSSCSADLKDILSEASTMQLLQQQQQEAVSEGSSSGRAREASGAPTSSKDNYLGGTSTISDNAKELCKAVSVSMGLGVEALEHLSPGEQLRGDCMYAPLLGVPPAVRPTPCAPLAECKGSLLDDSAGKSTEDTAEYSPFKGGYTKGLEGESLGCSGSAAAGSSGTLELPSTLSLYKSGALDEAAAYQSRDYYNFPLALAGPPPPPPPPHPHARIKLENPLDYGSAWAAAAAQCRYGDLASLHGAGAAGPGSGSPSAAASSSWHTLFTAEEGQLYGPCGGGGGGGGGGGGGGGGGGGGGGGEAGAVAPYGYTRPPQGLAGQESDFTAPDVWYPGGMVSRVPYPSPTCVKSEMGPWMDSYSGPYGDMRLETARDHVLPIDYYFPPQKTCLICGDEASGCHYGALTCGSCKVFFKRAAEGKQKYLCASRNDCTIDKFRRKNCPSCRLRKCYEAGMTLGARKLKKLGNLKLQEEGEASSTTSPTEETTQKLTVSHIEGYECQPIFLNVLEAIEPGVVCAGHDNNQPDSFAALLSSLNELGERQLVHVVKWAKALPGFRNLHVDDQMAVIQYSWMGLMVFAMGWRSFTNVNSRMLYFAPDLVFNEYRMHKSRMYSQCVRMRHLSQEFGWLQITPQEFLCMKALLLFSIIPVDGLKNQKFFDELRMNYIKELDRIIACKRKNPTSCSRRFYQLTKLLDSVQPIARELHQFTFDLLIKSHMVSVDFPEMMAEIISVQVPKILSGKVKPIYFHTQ
Description: Antagonist activity at human androgen receptor expressed in CV1 cells

Androgen receptor [2] = molecular target: T1, Androgen receptor; remark: listed apart in the source
Description: Agonist activity at human androgen receptor expressed in CV1 cells

Androgen receptor [3] = molecular target: T1, Androgen receptor; experiment: biochemical
Description: Binding affinity to human androgen receptor expressed in CV1 cells

| Structure (SMILES) | IC50 (Androgen receptor [1]) | EC50 (Androgen receptor [2]) | Ki (Androgen receptor [3]) |
| --- | --- | --- | --- |
| O=c1cc(C(F)(F)F)c2ccc(N(CC(F)(F)F)CC(F)(F)F)cc2o1 | 0.063 µM | 0.073 µM | – |
| CC1(C)C=Cc2cc3c(C(F)(F)F)cc(O)nc3cc2N1 | 0.027 µM | – | 0.073 µM |
| O=c1cc(C(F)(F)F)c2ccc(NC3CCCCC3)cc2[nH]1 | 0.507 µM | – | 1 µM |
| O=c1cc(C(F)(F)F)c2ccc(NC3CCCC3)cc2[nH]1 | 0.149 µM | – | 1 µM |
| O=c1cc(C(F)(F)F)c2ccc(NCC(F)(F)F)cc2o1 | 0.05 µM | – | – |
| O=c1cc(C(F)(F)F)c2cc(NC3CCCC3)ccc2[nH]1 | 0.042 µM | – | 0.074 µM |
| O=c1cc(C(F)(F)F)c2ccc(NCc3ccccc3)cc2[nH]1 | 0.294 µM | – | 0.163 µM |
| CCNc1ccc2[nH]c(=O)cc(C(F)(F)F)c2c1 | 0.111 µM | – | – |
| CCC1CCc2cc3c(C(F)(F)F)cc(=O)[nH]c3cc2N1 (stereo unspecified) | 0.014 µM | – | 0.011 µM |
